According to patent US12324795B2, “Autophagy activating agent” (WAKUNAGA PHARMACEUTICAL CO., LTD., priority 2018, dated 2025):

How the values were obtained:
Format in all cases: cell-based
[1] = test system: Atg7; assay: Western blotting of Atg7 expression (autophagy activation) in okadaic acid-treated human neuroblasts; settings: SH-SY5Y cells
Procedure: (§1) Human neuroblastoma cell line SH-SY5Y cells were cultured in a Dulbecco's modified Eagle medium supplemented with 10% fetal bovine serum, and antibiotic penicillin-streptomycin solution, and the cultured cells were used as cells for evaluation test.
Okadaic acid (at a concentration of 100 nM) and S1PC (at concentrations of 0.03, 0.1, and 0.3 mM) were added to the human neuroblasts for evaluation test prepared in (2) above, and the cells were cultured for 6 hours. After culturing, the cultured cells were washed with a phosphate buffer, and then lysed with RIPA cell lysis buffer (manufactured by Millipore Corporation) diluted 10-fold with purified water containing a protease/phosphatase cocktail inhibitor (manufactured by Thermo Fisher Scientific K.K.). After that, centrifugation was conducted (at 10000 rpm, for 10 minutes, at 4° C.), and the supernatant was used as a cell extract. This cell extract was used to conduct analysis by western blotting in accordance with a usual method. […]
10 nM okadaic acid, 0.3 mM S1PC, and 10 mM autophagy inhibitor (3-methyladenine) were added to the human neuroblasts for evaluation test prepared in (2) above, and the cells were cultured for 24 hours. A cell extract was prepared in the same manner as in (a) above, and analyzed by western blotting in accordance with a usual method. […]

[2] = test system: caspase-3; assay: Western blotting of caspase-3 activation (apoptosis inhibitory effect) in okadaic acid-treated human neuroblasts; settings: SH-SY5Y cells, 100 nM okadaic acid, 0.3 mM S1PC, 6 hours, FIG. 3
Procedure: as §1
(§2) 100 nM okadaic acid and 0.3 mM S1PC were added to the human neuroblasts for evaluation test prepared in (2) above, and the cells were cultured for 6 hours. A cell extract was prepared in the same manner as in (a) above, and analyzed by western blotting in accordance with a usual method. An anti-caspase-3 antibody (manufactured by Cell Signaling Technology, Inc.) and an anti-β-actin antibody (manufactured by Wako Pure Chemical Industries, Ltd.) were used as antibodies.

[3] = test system: α-synuclein protein; assay: Western blotting of α-synuclein protein (α-synuclein protein-removing effect) in rotenone-treated human neuroblasts; settings: SH-SY5Y cells, 3 hours
Procedure: as §1
as §2, with “10 μM rotenone,” for “100 nM okadaic acid and”, “S1PC, and 1 mM autophagy inhibitor (3-methyladenine)” for “S1PC”, “3” for “6”, “anti-α-synuclein antibody, an anti-LC3B” for “anti-caspase-3”, “Inc.),” for “Inc.)”, “MEDICAL & BIOLOGICAL LABORATORIES CO., LTD.)” for “Wako Pure Chemical Industries, Ltd.)”
500 nM rotenone, and 0.3 mM S1PC or SAC were added to the human neuroblasts for evaluation test prepared in (2), and the cells were cultured for 3 hours. A cell extract was prepared in the same manner as in (a) above, and analyzed by western blotting in accordance with a usual method. An anti-α-synuclein antibody, an anti-LC3B antibody (manufactured by Cell Signaling Technology, Inc.), and an anti-β-actin antibody (manufactured by MEDICAL & BIOLOGICAL LABORATORIES CO., LTD.) were used. […] Therefore, S1PC is considered to be useful for Parkinson's disease, for example, accompanied by α-synuclein protein accumulation.

[4] = test system: LC3B-II; assay: Western blotting of LC3B-II expression in rotenone-treated human neuroblasts; settings: SH-SY5Y cells, 10 μM rotenone, 0.3 mM S1PC, 1 mM 3-methyladenine, 3 hours, FIG. 5
Procedure: as §1
10 μM rotenone, 0.3 mM S1PC, and 1 mM autophagy inhibitor (3-methyladenine) were added to the human neuroblasts for evaluation test prepared in (2) above, and the cells were cultured for 3 hours. A cell extract was prepared in the same manner as in (a) above, and analyzed by western blotting in accordance with a usual method. An anti-α-synuclein antibody, an anti-LC3B antibody (manufactured by Cell Signaling Technology, Inc.), and an anti-β-actin antibody (manufactured by MEDICAL & BIOLOGICAL LABORATORIES CO., LTD.) were used as antibodies.

[5] = test system: tau protein; assay: Western blotting of tau protein (tau protein-removing effect) in okadaic acid-treated human neuroblasts; settings: SH-SY5Y cells
Procedure: as §1
Okadaic acid (at a concentration of 100 nM) and S1PC (at concentrations of 0.03, 0.1, and 0.3 mM) were added to the human neuroblasts for evaluation test prepared in (2) above, and the cells were cultured for 6 hours. After culturing, the cultured cells were washed with a phosphate buffer, and then lysed with RIPA cell lysis buffer (manufactured by Millipore Corporation) diluted 10-fold with purified water containing a protease/phosphatase cocktail inhibitor (manufactured by Thermo Fisher Scientific K.K.). After that, centrifugation was conducted (at 10000 rpm, for 10 minutes, at 4° C.), and the supernatant was used as a cell extract. This cell extract was used to conduct analysis by western blotting in accordance with a usual method. An anti-Atg7 antibody (manufactured by Cell Signaling Technology, Inc.), an anti-4T-tau antibody (manufactured by Wako Pure Chemical Industries, Ltd.), and an anti-β-actin antibody (manufactured by Wako Pure Chemical Industries, Ltd.) were used as antibodies.
as §2, with “10” for “100”, “acid,” for “acid and”, “S1PC, and 10 mM autophagy inhibitor (3-methyladenine)” for “S1PC”, “24” for “6”, “anti-Atg7” for “anti-caspase-3”, “Inc.), an anti-4T-tau antibody (manufactured by Wako Pure Chemical Industries, Ltd.),” for “Inc.)”
as §2, with “50” for “100”, “S1PC or SAC” for “S1PC”, “anti-4T-tau” for “anti-caspase-3”, “Wako Pure Chemical Industries, Ltd.)” for “Cell Signaling Technology, Inc.)”

[6] = 10 nM okadaic acid, 0.3 mM S1PC, 10 mM 3-methyladenine, 24 hours, FIG. 2
[7] = okadaic acid 100 nM, S1PC 0.03, 0.1 and 0.3 mM, 6 hours, FIG. 1

CC=CSCC(N)C(=O)O (centres unmarked) [S1PC, S-1-propenylcysteine]
Atg7 expression-increasing effect with autophagy inhibitor [1, 6]: suppressed by adding the autophagy inhibitor
Atg7 expression [1, 7]: increased
activation of caspase-3 [2]: suppressed
α-synuclein protein-removing effect compared with SAC ([3]; 500 nM rotenone, 0.3 mM S1PC or SAC, FIG. 6): superior to SAC
α-synuclein protein ([3]; 500 nM rotenone, 0.3 mM, FIG. 6): decreased
α-synuclein protein-removing effect with autophagy inhibitor ([3]; 10 μM rotenone, 0.3 mM S1PC, 1 mM 3-methyladenine, FIG. 5): suppressed by adding the autophagy inhibitor
LC3B-II expression-increasing effect with autophagy inhibitor [4]: suppressed by adding the autophagy inhibitor
tau protein-removing effect with autophagy inhibitor [5, 6]: suppressed by adding the autophagy inhibitor
tau protein-removing effect compared with SAC ([5]; 50 nM okadaic acid, 0.3 mM S1PC or SAC, 6 hours, FIG. 4): superior to SAC
tau protein ([5]; 50 nM okadaic acid, 0.3 mM, 6 hours, FIG. 4): decreased
removal of tau proteins [5, 7]: promoted removal
